Assays:
BRAF V600E = BRAF V600E (Homo sapiens (Human), UniProt P15056, V600E); test: Kd affinity for BRAF V600E kinase; type: binding
CRAF = CRAF (Homo sapiens (Human), UniProt P04049); test: Kd affinity for CRAF kinase; type: binding
BRAF = BRAF (Homo sapiens (Human), UniProt P15056); test: Kd affinity for BRAF kinase; type: binding
[1] = test system: P-ERK in HCT116 cells expressing WT BRAF; test: HTRF assay for P-ERK determination in HCT116 cells (paradoxical BRAF activation); type: cell-based; conditions: HCT-116 cells; for Percentage of Maximum paradox inducing effect from dabrafenib: maximum P-ERK signal as percentage of highest dabrafenib signal within dose range tested; for EC50: read-out: p-ERK EC50 (nM) conc. (nM) at which the compound induces P-ERK activation of 50% of that induced by dabrafenib (Positive control paradox inducer) HCT-116, 1 hour drug incubation, not applicable if activation does not reach 50% of dabrafenib maximum
Method: (§1) A375 is a cellular cancer model expressing V600E mutated BRAF and HCT116 a cellular cancer model expressing WT BRAF. […] ERK 1,2 phosphorylation (terminal member of the phosphorylation cascade of the MAPK pathway) is hereafter reported as main readout for the activation status of the MAPK pathway. Prior to the assay, A375 and HCT116 cell lines are maintained in DMEM no-phenol red medium supplemented with 10% fetal bovine serum (FBS). […] Briefly, 8000 cells/well in 12 μl media/well are plated in the 384-well plate and left overnight in the incubator (at 37° C. with 5% CO2-humidified atmosphere), the following day the plate is treated in duplicate with test compounds, dabrafenib and PLX8394 (the latter two as controls) at the following final drug concentrations: 10 μM-3 μM-1 μM-0.3 μM-0.1 μM-0.03 μM-0.01 μM-0.003 μM-0.001 μM, all wells are subjected to DMSO normalization and drug incubation occurs for 1 hour. Then, 4 μl of a 4× lysis buffer supplied with the kit are added to the wells, the plate is then centrifuged for 30 second (300 rcf) and incubated on a plate shaker for 1 h at RT.
(§2) At the end of the incubation 4 μL/well of advanced P-ERK antibody solution (prepared according to manufacturer's instruction) followed by 4 μL/well of criptate P-ERK antibody solution (prepared according to manufacturer's instruction) (Cisbio cat #64AERPEH) are added to test wells.
(§3) In order to allow proper data normalization control wells without drug treatment reported are always included in each plate (according to manufacturer's instruction):
(§4) The plate is then centrifuged at 300 rcf for 30 second, sealed to prevent evaporation and incubated overnight in the dark at room temperature.
The plate is then analyzed and fluorescence emission value collected through a Pherastast FSX (BMG Labtech) apparatus at […].
(§5) The obtained fluorescence values are processed according to the formula Ratio=[…]*10000 then the average of the ratio on the blank is subtracted to all values.
Individual points are fitted with either sigmoidal or bell shape curves, and the percentage of activation compared to maximum dabrafenib-mediated activation is determined. The EC50 is the concentration at which activation equal to 50% of the maximum achieved by dabrafenib is obtained.
The Percentage of Maximum paradox inducing effect from dabrafenib is determined by evaluating the percentage at which the test compound induce its maximum P-ERK signal as percentage of the highest signal produced by dabrafenib within the dose range tested.

[2] = test system: P-ERK in A375 cells expressing V600E mutated BRAF; test: HTRF assay for P-ERK determination in A375 cells (BRAF inhibition); type: cell-based; conditions: Homo sapiens, A-375, 1 h, read-out: pERK IC50 (nM) A375
Method: as §1, §2, §3, §4, §5
Mean of the normalized points are fitted with sigmoidal curve and IC50 determined.

[3] = biological target: lymphocyte-specific tyrosine protein kinase (LCK) (Homo sapiens (Human), UniProt P06239); test: Kd affinity for lymphocyte-specific tyrosine protein kinase (selectivity); type: binding
Chain of lymphocyte-specific tyrosine protein kinase (LCK) (P06239 whole entry): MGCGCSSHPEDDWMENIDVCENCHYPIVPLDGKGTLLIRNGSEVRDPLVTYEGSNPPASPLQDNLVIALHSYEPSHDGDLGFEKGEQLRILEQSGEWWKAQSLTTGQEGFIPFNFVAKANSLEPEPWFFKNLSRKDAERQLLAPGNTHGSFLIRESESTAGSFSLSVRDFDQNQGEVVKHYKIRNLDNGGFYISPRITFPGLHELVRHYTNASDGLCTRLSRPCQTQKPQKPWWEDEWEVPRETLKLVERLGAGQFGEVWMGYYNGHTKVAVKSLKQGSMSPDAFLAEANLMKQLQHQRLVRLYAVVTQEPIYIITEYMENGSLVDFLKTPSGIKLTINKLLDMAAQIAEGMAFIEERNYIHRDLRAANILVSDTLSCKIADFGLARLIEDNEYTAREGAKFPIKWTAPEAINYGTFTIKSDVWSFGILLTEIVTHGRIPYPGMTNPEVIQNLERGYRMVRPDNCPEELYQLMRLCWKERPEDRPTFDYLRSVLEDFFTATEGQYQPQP

[4] = biological target: C-terminal Src kinase (CSK) (Homo sapiens (Human), UniProt P41240); test: Kd affinity for C-terminal Src kinase (selectivity); type: binding
Chain of C-terminal Src kinase (CSK) (P41240 whole entry): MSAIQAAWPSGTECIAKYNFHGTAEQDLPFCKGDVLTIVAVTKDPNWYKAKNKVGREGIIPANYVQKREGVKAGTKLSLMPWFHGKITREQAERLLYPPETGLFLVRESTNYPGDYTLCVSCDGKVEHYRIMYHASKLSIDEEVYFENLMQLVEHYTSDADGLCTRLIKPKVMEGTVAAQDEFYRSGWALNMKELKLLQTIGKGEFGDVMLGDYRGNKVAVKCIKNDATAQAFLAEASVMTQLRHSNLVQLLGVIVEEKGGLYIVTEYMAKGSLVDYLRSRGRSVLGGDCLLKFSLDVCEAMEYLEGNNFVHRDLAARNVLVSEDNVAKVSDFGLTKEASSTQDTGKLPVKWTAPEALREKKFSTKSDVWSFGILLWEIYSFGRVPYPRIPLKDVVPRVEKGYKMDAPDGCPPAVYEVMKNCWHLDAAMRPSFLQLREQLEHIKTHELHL

[5] = test system: P-ERK in A375 BRAF V600E NRAS Q61K cells; test: P-ERK levels in first generation BRAFi resistant cell model A375 BRAF V600E NRAS Q61K; type: cell-based
[6] = test system: YUMM1.7 tumors, immune cell infiltrate (mCD45, mCD3); test: Immuno-phenotyping of YUMM1.7 tumors by flow cytometry and IHC; type: in vivo, mouse (C57/BL6)
Method: FIG. 6 reports the total immune cell (top) and T-cell (bottom) infiltrates in tumors, as quantified through flow cytometry. Total immune cell infiltrate was expressed as percentage of mCD45 positive with respect to the alive cells at day 3 and day 6, and T-cell infiltrate expressed in mCD3 positive cells per mm2.
FIG. 7 reports the immunohistochemistry analysis of the mouse immune cell marker CD45 of tumors treated for 3 days with either Vehicle, Compound Ia at 5 mg/kg (daily), mPD1 at 12.5 mg/kg (single treatment) or a combination thereof.
For the immunohistochemical analysis, female C57/BL6 mice were injected subQ with YUMM1.7 cells. When tumors reached around 250 mm^3 (day 14) mice were treated with either Compound Ia at 1 or 5 mg/kg daily (oral administration), with anti-mouse PD1 at 12.5 mg/kg once (single intraveneous administration) or the combination of Compound Ia and anti-mPD1. Mice were sacrificed and tumors collected upon 3 or five days from the beginning of the treatment and tumors were either digested and utilized for cytofluorimetric analysis of fixed and paraffin embedded.

[7] = test system: YUMM1.7 tumors (BRAF V600E); test: In vivo antitumor activity on YUMM1.7 syngeneic allograft tumors; set-up: species or system mouse (C57BL/6); conditions: combination of Compound Ia (1 or 5 mg/kg PO QD) and mouse anti PD-1 antibody (IV once a week); monitored until day 58
Method: Mice were treated until day 31 and afterwards drug treatments were suspended and mice were monitored for evidences of tumor regrowth.
Mice were treated until day 45 and afterwards drug treatments were suspended and mice were monitored for evidences of tumor regrowth.
In the in vivo studies, female mice 7-9 weeks old (at experiment initiation) of the immunocompetent strain C57BL/6 were utilized. The experiment was performed at the Contract Research Organization (CRO) Covance that sourced mice, performed tumor establishment, drug treatment and tumor monitoring.
For xenograft establishment YUMM1.7 cells were suspended in a media composed of 50% Matrigel and 50% Hank's balanced Salt Solution and injected subcutaneously on the right flanks. When tumor volume reached around 100 mm^3 mice were randomized prior treatment.
Mice were implanted with the cell line YUMM1.7 harboring the BRAF V600E mutation. Upon tumor establishment (100 mm3) mice were randomized and received orally (PO) once per day (QD) either Compound Ia (1 mg/kg or 5 mg/kg), mouse anti PD-1 antibody through IV injection, once a week or the respective combinations of PD-1 and Compound Ia at 1 or 5 mg/kg. […] Upon treatment conclusion mice were monitored until day 58 for signs of tumor relapse.

Chain of BRAF V600E (P15056 whole entry V600E): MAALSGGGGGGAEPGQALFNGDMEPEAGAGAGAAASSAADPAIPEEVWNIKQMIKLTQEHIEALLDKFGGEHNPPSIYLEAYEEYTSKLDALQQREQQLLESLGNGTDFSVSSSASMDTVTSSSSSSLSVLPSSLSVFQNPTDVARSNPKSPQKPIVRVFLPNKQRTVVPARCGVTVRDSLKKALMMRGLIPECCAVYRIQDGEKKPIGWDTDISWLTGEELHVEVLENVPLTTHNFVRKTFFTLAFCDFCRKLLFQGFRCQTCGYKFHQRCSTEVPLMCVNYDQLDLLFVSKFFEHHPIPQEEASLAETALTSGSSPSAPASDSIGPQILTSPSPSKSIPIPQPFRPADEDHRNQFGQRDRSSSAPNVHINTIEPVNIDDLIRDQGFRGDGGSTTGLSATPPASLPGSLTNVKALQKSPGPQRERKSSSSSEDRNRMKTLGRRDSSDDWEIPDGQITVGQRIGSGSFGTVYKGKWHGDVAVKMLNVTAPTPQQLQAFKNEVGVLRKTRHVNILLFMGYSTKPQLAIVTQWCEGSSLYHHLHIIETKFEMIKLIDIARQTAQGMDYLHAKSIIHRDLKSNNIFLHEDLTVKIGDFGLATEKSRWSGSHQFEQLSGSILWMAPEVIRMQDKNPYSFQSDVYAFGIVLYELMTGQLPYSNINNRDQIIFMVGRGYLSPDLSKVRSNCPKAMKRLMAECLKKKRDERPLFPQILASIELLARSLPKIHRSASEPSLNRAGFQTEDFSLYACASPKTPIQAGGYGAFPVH
Chain of BRAF (P15056 whole entry): as the sequence (P15056 whole entry V600E) above, with E600V counted along it
Chain of CRAF (P04049 whole entry): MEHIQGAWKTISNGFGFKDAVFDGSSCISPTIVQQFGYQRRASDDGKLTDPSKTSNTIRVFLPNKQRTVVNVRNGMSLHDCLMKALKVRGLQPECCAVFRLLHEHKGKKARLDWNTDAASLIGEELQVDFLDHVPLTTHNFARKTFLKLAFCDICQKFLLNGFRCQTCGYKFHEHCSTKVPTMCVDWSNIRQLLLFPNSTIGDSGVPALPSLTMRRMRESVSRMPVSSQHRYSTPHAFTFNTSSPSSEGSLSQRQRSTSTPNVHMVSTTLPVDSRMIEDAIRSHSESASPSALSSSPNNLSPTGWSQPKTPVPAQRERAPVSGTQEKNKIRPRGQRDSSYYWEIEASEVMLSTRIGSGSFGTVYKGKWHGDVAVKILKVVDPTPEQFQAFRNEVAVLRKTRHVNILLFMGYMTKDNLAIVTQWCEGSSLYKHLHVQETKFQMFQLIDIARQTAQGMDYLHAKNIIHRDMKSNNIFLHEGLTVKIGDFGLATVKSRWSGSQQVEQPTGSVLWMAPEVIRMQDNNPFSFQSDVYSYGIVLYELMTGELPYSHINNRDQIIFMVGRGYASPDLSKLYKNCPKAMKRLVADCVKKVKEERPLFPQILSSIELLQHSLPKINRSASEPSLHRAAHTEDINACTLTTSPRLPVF

SMILES: Cn1cnc2ccc(Nc3c(Cl)ccc(NS(=O)(=O)N4CCCC4)c3F)cc2c1=O [AR-31]
- Kd (BRAF V600E): 119 nM
- Kd (CRAF): 190 nM
- Kd (BRAF): 45.9 nM
- Percentage of Maximum paradox inducing effect from dabrafenib [1]: 51.2%
- EC50 [1]: > 1000 nM
- IC50 [2]: 311 nM
- Kd [3]: 12000 nM
- Kd [4]: 1210 nM

SMILES: CCCS(=O)(=O)Nc1ccc(F)c(Oc2ccc3ncn(C)c(=O)c3c2)c1C#N [AR-25]
- Kd (BRAF V600E): 0.2 nM
- Kd (CRAF): 0.3 nM
- Kd (BRAF): 0.1 nM
- EC50 [1]: 9.6 nM
- IC50 [2]: 1.1 nM
- Kd [3]: > 40000 nM
- Kd [4]: > 40000 nM

SMILES: CN(C)S(=O)(=O)Nc1ccc(Cl)c(Nc2ccc3ncn(C)c(=O)c3c2)c1F [AR-30]
- Kd (BRAF V600E): 504 nM
- Kd (CRAF): 822 nM
- Kd (BRAF): 174 nM
- Percentage of Maximum paradox inducing effect from dabrafenib [1]: 59%
- EC50 [1]: > 1000 nM
- IC50 [2]: 406 nM
- Kd [3]: 10400 nM
- Kd [4]: 8010 nM

SMILES: Cn1cnc2ccc(Oc3c(F)ccc(NS(=O)(=O)N4CC[C@@H](F)C4)c3C#N)cc2c1=O [Ex. 1, (3R)-N-[2-cyano-4-fluoro-3-(3-methyl-4-oxo-quinazolin-6-yl)oxy-phenyl]-3-fluoro-pyrrolidine-1-sulfonamide]
- Percentage of Maximum paradox inducing effect from dabrafenib [1]: 43.65%
- P-ERK reduction in combination with MEKi cobimetinib ([5]; combination with cobimetinib at fixed dose of 10 nM, compared with encorafenib/binimetinib): superior P-ERK reduction
- P-ERK inhibition as single agent ([5]; single agent, compared with Encorafenib): potent P-ERK inhibition
- antitumor response ([6]; YUMM1.7 tumors, Compound Ia oral daily): robust antitumor response
- recruitment of inflammatory infiltrate in tumors ([6]; flow cytometry and IHC data): triggers recruitment of inflammatory infiltrate
- number of mice showing disease relapse [7]: strong impact

From US20240197735A1, “METHODS AND COMPOSITIONS COMPRISING A BRAF INHIBITOR AND A PD-1 BINDING ANTAGONIST” (Hoffmann-La Roche Inc., priority 2021, published 2024)
